Series [1] concerns the target T1, mutant B-RAF (Homo sapiens, UniProt P15056, V600E).
T1 construct: purchased Upstate (Charlottesville, Va.)
Nature of the series: Measurement of RAF activity (MEK-1 phosphorylation). The note with it: 50 μM ATP, MEK-1 substrate; read-out: Mut-B-Raf IC50. The format is biochemical. As for the experimental part:
Materials: The RAF kinases and the anti-phospho MEK1/2 antibody were from Upstate (Charlottesville, Va.). The RAF substrate used was full length N-terminal GST-MEK-1, which was expressed in E. coli and purified in-house by HPLC. All proteins were aliquoted and stored at −80° C. Superblock™ in phosphate buffered saline (PBS) blocking reagent was form Pierce (cat. #37515). ATP was from Roche (cat. # 19035722). Alkaline Phosphatase-tagged goat anti-rabbit antibody was from Pierce (cat. # 31340).
Methods: All RAF biochemical assays were performed using an assay buffer containing 20 mM MOPS, 5 mM EGTA, 37.5 mM MgCl2, 1 mM DTT and 50 μM ATP. There was 6.25 ng/well mutant B-RAF and 7.5 ng/well MEK-1 in the final assay conditions. Compounds were serially diluted in assay buffer containing 1% DMSO and 20 μl of test compound at a concentration 3-fold more than the final concentration, and were added to a polypropylene V-well reaction plate. Vehicle control wells received buffer only with DMSO at equivalent concentrations to the test wells. […] These reaction plates were incubated at room temperature for 30 minutes. Capture of MEK-1 was initiated by transferring 50 μl of the reaction mixture to a Nunc Maxisorp™ microplate that is designed for non-specific protein capture. After 30 minute capture of MEK-1 at room temperature, this plate was washed with TBST (6×200 μL/well) to fully terminate the reaction. The plate was then blocked for 1 hour by the addition of 100 μl/well of Superblock™ in phosphate buffered saline (PBS) blocking reagent. Plate was again washed with TBST (6 times with 200 μl/well), followed by the addition of 70 μl/well of Upstate anti-phospho MEK ½ diluted 1:1000 in Pierce Superblock (PBS). After a 60 minute incubation, this plate was washed with TBST (6 times with 200 μl/well), and 70 μl of the secondary antibody (Pierce Alkaline Phosphatase tagged goat anti-rabbit) prepared at 1:4000 in Superblock, were added. After a 45 minute incubation at room temperature, the wells of the microplate were washed with TBST (6 times with 200 μl/well), and thereafter 100 μl/well of Attophos™ fluorescent alkaline phosphatase substrate was added according to the manufacturer's instructions (JBL Scientific). Fluorescence was read on a Perkin Elmer Envision multilabel reader, using the following filters: Excitation Filter: CFP430 nM, Emission Filter: Emission Filter 579 nM.

Series [2] concerns SK-MEL-28. Nature of the series: Cell growth inhibition assay (MTS). The format is cell-based. The note with it: Homo sapiens; SK-MEL-28, 72 hours. As for the experimental part:
(§1) Compounds of the present invention have been tested for activity against a variety of cancer cell lines. The ability of compounds to inhibit cell growth in this assay is correlated with the reduction of dehydrogenase enzyme activity found in metabolically active cells.
(§2) Materials: A large variety of cancer cells from ATCC were maintained at 37° C., 5% CO2 in DMEM media supplemented with 10% fetal bovine serum, penicillin/streptomycin and fungizone (Invitrogen). NCM460 (Incell), a normal colon epithelial cell line, and human mammary epithelial cells (Cambrex) were maintained at 37° C., 5% CO2 in DMEM and HEBM media (Cambrex), respectively.
(§3) Methods: Test compounds were dissolved and diluted to 300× in DMSO then diluted 1:40 in DMEM. Cells were seeded into 96-well tissue culture plates at 1-5×10^3 per well and cultured at 37° C. for 24 h. Cells were incubated with test compounds for 72 hours followed by incubation with tetrazolium compound (3-(4,5-dimethylthiazol-2-yl)-5-(3-carboxymethoxyphenyl)-2-(4-sulfophenyl)-2H-tetrazolium, inner salt; MTS) and the electron coupling reagent, phenazine methosulfate (PMS) for 4 hr. […] The measurement of the absorbance of the formazan was assessed using an ENVISION™ (Perkin Elmer) microplate reader at 492 nm. The calculated IC50 value is the concentration of the test compound that causes a 50% decrease in the absorbance.

Series [3] concerns DLD-1. Nature of the series: Cell growth inhibition assay (MTS). The format is cell-based. The note with it: Homo sapiens; DLD-1, 72 hours. As to the method: as §1, §2, §3
The subject of series [4] is RKO. Nature of the series: Cell growth inhibition assay (MTS). The format is cell-based. To be noted: Homo sapiens, 72 hours. As to the method: as §1, §2, §3
The subject of series [5] is WM-266-4. As to the kind of experiment: Cell growth inhibition assay (MTS). The format is cell-based. To be noted: Homo sapiens; WM-266-4, 72 hours. As to the method: as §1, §2, §3
Series [6] relates to A375. As to the kind of experiment: Cell growth inhibition assay (MTS). The format is cell-based. To be noted: Homo sapiens, A-375, 72 h, A375, 72 hours. As to the method:
as §1, §2, §3

In series [7] the test system is SK-MEL-2. Nature of the series: Cell growth inhibition assay (MTS). The format is cell-based. The note with it: Homo sapiens; SK-MEL-2, 72 hours. As for the experimental part:
as §1, §2, §3

Series [8] relates to p-Erk (A375). Nature of the series: Cell-based phosphorylation assay with electroblotting readout. Set-up: species or system human. The note with it: Homo sapiens, A-375; A375 cells, 1 hr. The source says:
Compounds of the present invention have been screened for their ability to inhibit all isoforms, both wild-type and mutant of RAF kinases (A-RAF, B-RAF and C-RAF) in general, and the mutant B-RAF (V600E) in particular in human cancer cells. A375 is a human melanoma cell line that harbors the most common B-RAF mutation-V600E found in human cancers. The ability of compounds to inhibit RAF kinases in this assay is correlated with the reduction of MEK and ERK phosphorylation, and is therefore a direct indicator of potential in vivo therapeutic activity.
Materials: A375 cells from ATCC were maintained at 37° C., 5% CO2 in DMEM media supplemented with 10% fetal bovine serum, penicillin/streptomycin and fungizone. (Invitrogen)
Methods: Test compounds were dissolved and diluted 1:1000 in DMSO. A375 cells were seeded in six-well tissue culture plates at 5-8×10^5 per well and cultured at 37° C. for 24 h. Cells were incubated with compounds for one hour before being lysed in EPage™ loading buffer (Invitrogen). Lysates were electrophoresed on 8% EPage™ gels and transferred to polyvinylidene difluoride membranes. After incubations with primary and secondary antibodies, the immunostained proteins were detected and quantitated by an Odyssey infrared imager (LI-COR). Analysis was performed by non-linear regression to generate a dose response curve. The calculated IC50 value was the concentration of the test compound that causes a 50% decrease in phospho-MEK and phospho-ERK levels. The primary antibodies used were anti-MEK (Stressgen), anti-ERK (BD Biosciences), anti-phospho-ERK and anti-phospho-MEK (Cell Signaling). The secondary antibodies used were IRDYE800 anti-rabbit, IRDYE 800 anti-mouse (Rockland), AlexaFluor680 anti-mouse and AlexaFluoro680 anti-rabbit (Invitrogen).
A375 cells were treated with 0, 12, 37, 111, 333 and 1000 nM of indicated compounds for 1 hr. The levels of Phospho-ERK and total-ERK were accessed by immunoblotting.

As usually defined, the IC50 is the concentration that gives 50% inhibition. Usually GI50 stands for the concentration at which growth is held to half of that of the control. A higher GI50 goes with lower sensitivity of the cells. As a reminder, the EC50 is the concentration that produces a half-maximal response. The low end stands for a more potent agent, the high end for a less potent agent. One may read the melting point as the temperature of the solid-liquid transition.

Structures can show the parent of a compound that is named as a salt.

T1 sequence (P15056 whole entry V600E): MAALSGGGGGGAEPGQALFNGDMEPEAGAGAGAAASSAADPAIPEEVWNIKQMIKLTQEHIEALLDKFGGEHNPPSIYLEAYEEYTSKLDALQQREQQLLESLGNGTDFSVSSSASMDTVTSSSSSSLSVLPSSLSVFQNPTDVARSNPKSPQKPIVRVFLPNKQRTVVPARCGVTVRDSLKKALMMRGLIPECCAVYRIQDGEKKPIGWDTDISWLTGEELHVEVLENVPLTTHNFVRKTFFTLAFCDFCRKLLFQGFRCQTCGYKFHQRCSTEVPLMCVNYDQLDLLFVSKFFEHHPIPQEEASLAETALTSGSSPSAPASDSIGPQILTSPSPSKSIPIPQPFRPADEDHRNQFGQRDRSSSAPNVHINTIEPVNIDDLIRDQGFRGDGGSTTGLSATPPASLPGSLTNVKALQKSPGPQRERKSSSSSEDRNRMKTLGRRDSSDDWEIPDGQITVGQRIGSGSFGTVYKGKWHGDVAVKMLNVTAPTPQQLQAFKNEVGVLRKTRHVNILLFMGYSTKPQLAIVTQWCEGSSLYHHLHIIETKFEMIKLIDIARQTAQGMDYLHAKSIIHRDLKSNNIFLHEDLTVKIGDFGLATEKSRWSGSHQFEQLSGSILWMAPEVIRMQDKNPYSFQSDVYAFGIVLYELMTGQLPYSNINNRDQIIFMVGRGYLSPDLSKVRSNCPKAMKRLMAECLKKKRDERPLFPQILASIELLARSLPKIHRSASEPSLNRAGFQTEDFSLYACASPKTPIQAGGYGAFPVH

As to `Cn1ccc(S(=O)(=O)N2CCC(Nc3nccc(-c4c(-c5cccc(O)c5)nc5occn45)n3)CC2)n1` [Compound 20, 3-(5-(2-(1-(1-methyl-1H-pyrazol-3-ylsulfonyl)piperidin-4-ylamino)pyrimidin-4-yl)imidazo[2,1-b]oxazol-6-yl)phenol], the IC50 in series [1] came out at 13 nM. For the same compound, the concentration for 50% growth inhibition (GI50) was 393 nM in series [2]; 9470 nM in series [3]; 372 nM in series [4]; 2 nM in series [5]; below 0.4 nM in [6]; 310 nM in [7]. Besides, the 50% effective concentration (EC50) in series [8] amounted to 73 nM.
For the compound `O=S(=O)(c1ccc(F)cc1)N1CCC(Nc2nccc(-c3c(-c4cccc(O)c4)nc4occn34)n2)CC1` [Compound 9, 3-(5-(2-(1-(4-fluorophenylsulfonyl)piperidin-4-ylamino)pyrimidin-4-yl)imidazo[2,1-b]oxazol-6-yl)phenol], the IC50 in series [1] turned out to be 48 nM. Moreover, the GI50 in series [2] was 300 nM; in series [3], 1620 nM; in [4] it was 283 nM; in series [5], below 0.4 nM; in series [6], below 0.4 nM; in series [7], 356 nM. Besides, the EC50 in [8] was 129 nM.
`O=S(=O)(C1CC1)N1CCC(Nc2nccc(-c3c(-c4cccc(O)c4)nc4occn34)n2)CC1` [Compound 11, 3-(5-(2-(1-(cyclopropylsulfonyl)piperidin-4-ylamino)pyrimidin-4-yl)imidazo[2,1-b]oxazol-6-yl)phenol]: in [1], the 50% inhibitory concentration (IC50) came to 48 nM. The concentration for 50% growth inhibition (GI50) was 555 nM in series [2]; 13900 nM in series [3]; 323 nM in series [4]; 3 nM in [5]; below 0.4 nM in series [6]; 2040 nM in series [7]. The compound further returned a 50% effective concentration (EC50) in series [8] of 53 nM.
The compound `O=P(O)(O)Oc1cccc(-c2nc3sccn3c2-c2cccc(N[C@@H]3CCCN(S(=O)(=O)c4ccc(Cl)cc4)C3)c2)c1` (as salt: phosphate) came in with a melting point of 239 to 245 °C.
Consider `O=S(=O)(c1ccc(Cl)cc1)N1CCC[C@@H](Nc2nccc(-c3c(-c4cccc(O)c4)nc4occn34)n2)C1` [Compound 4, (R)-3-(5-(2-(1-(4-chlorophenylsulfonyl)piperidin-3-ylamino)pyrimidin-4-yl)imidazo[2,1-b]oxazol-6-yl)phenol], for which the IC50 in series [1] stood at 10 nM. Also, the GI50 in series [2] came to 1120 nM; in series [3] it was 15400 nM; in series [4], 1810 nM; in series [5], 15 nM; in series [6] it was 0.54 nM; in [7] it was 1800 nM. Also, in series [8], the half-maximal effective concentration (EC50) is 35 nM.
In the case of `Cn1ccc(S(=O)(=O)N2CCC[C@@H](Nc3nccc(-c4c(-c5ccc(F)c(O)c5)nc5occn45)n3)C2)n1` [Compound 22, (R)-2-fluoro-5-(5-(2-(1-(1-methyl-1H-pyrazol-3-ylsulfonyl)piperidin-3-ylamino)pyrimidin-4-yl)imidazo[2,1-b]oxazol-6-yl)phenol], in series [1], the IC50 was 0.96 nM. Besides, the GI50 in series [2] was 33 nM; in series [3], 5920 nM; in series [4], 52 nM; in [5], below 0.4 nM; in [6], below 0.4 nM; in series [7], 42.8 nM. In addition, a half-maximal effect in series [8] (EC50) was put at 34 nM.
Regarding `Cn1ccc(S(=O)(=O)N2CCC[C@@H](Nc3nccc(-c4c(-c5cccc(O)c5)nc5sccn45)n3)C2)n1` [Compound 14, (R)-3-(5-(2-(1-(1-methyl-1H-pyrazol-3-ylsulfonyl)piperidin-3-ylamino)pyrimidin-4-yl)imidazo[2,1-b]thiazol-6-yl)phenol], in [1], the IC50 amounted to 6 nM. Moreover, the GI50 turned out to be 74 nM in [2]; 3000 nM in [3]; 122 nM in series [4]; 5 nM in [5]; 2 nM in series [6]; 170 nM in [7]. The EC50 in series [8] came out at 2 nM.
Turning to `O=S(=O)(c1ccc(Cl)cc1)N1CCC(Nc2nccc(-c3c(-c4cccc(O)c4)nc4sccn34)n2)CC1` [Compound 7, 3-(5-(2-(1-(4-chlorophenylsulfonyl)piperidin-4-ylamino)pyrimidin-4-yl)imidazo[2,1-b]thiazol-6-yl)phenol], the 50% inhibitory concentration (IC50) in series [1] came out at 8 nM. Besides, the GI50 in [2] is 88 nM; in series [3], 5520 nM; in series [4], 85 nM; in [5], 6 nM; in [6], below 0.4 nM; in series [7] it was 519 nM. The compound also came in with a 50% effective concentration (EC50) in series [8] of 82 nM.
